Assay results: US5137892A, “Quinoline, naphthyridine and pyridobenzoxazine derivatives” (Abbott Laboratories, priority 1990, dated 1992)
≈ marks a conversion by molar mass, not a printed value.

How the values were obtained:
Format in all cases: cell-based
[1] = test system: Pseudomonas aeruginosa K599/61; settings: P. aeruginosa K599/61; BHI agar dilution, 20-24 hours; unit assumed
Procedure: (§1) The activity of the compounds of the present invention was tested against a wide variety of bacteria using standard assay procedures. Minimum inhibitory concentrations (MICs) were determined by the agar dilution method, described below, using Brain Heart Infusion agar.
(§2) Twelve petri dishes were prepared, each containing successive aqueous 2-fold dilutions of the test compounds mixed with 10 mL of sterilized Brain Heart Infusion (BHI) agar. Each plate was inoculated with 100-fold (or 10-fold, for slow-growing strains such as Micrococcus and Streptococcus) dilutions of up to 32 different microorganisms using a Steers replicator block calibrated to deliver approximately 10^4 colony forming units (CFUs). The inoculated plates were incubated at about 35°-37° C. for approximately 20-24 hours. In addition, a control plate, using BHI agar containing no test compound, was prepared and incubated at the beginning and at the end of each test. Ciprofloxacin was used as the reference antibiotic.
(§3) The MIC was defined as the lowest concentration of test compound yielding no growth (a slight haze or sparsely isolated colonies at the inoculum spot as compared to the growth control contaning no test compound.

[2] = test system: Streptococcus bovis A5169; experiment: In Vitro Antibacterial Activity, agar dilution MIC; settings: S. bovis A5169; BHI agar dilution, 20-24 hours; unit assumed
Procedure: as §1, §2, §3

[3] = test system: Staphylococcus aureus 1775; experiment: In Vitro Antibacterial Activity, agar dilution MIC; settings: S. aureus 1775; BHI agar dilution, 20-24 hours; unit assumed
Procedure: as §1, §2, §3

[4] = test system: Enterobacter aerogenes ATCC 13048; experiment: In Vitro Antibacterial Activity, agar dilution MIC; settings: E. aerogenes ATCC 13048; BHI agar dilution, 20-24 hours; unit assumed
Procedure: as §1, §2, §3

[5] = test system: Escherichia coli H560; experiment: In Vitro Antibacterial Activity, agar dilution MIC; settings: E. coli H560; BHI agar dilution, 20-24 hours; unit assumed
Procedure: as §1, §2, §3

[6] = test system: Staphylococcus aureus A5177; experiment: In Vitro Antibacterial Activity, agar dilution MIC; settings: S. aureus A5177; BHI agar dilution, 20-24 hours; unit assumed
Procedure: as §1, §2, §3

[7] = test system: Pseudomonas cepacia 2961; experiment: In Vitro Antibacterial Activity, agar dilution MIC; settings: P. cepacia 2961; BHI agar dilution, 20-24 hours; unit assumed
Procedure: as §1, §2, §3

[8] = test system: Staphylococcus aureus 642A; experiment: In Vitro Antibacterial Activity, agar dilution MIC; settings: S. aureus 642A; BHI agar dilution, 20-24 hours; unit assumed
Procedure: as §1, §2, §3

[9] = test system: Escherichia coli KNK 437; experiment: In Vitro Antibacterial Activity, agar dilution MIC; settings: E. coli KNK 437; BHI agar dilution, 20-24 hours; unit assumed
Procedure: as §1, §2, §3

[10] = test system: Klebsiella pneumoniae ATCC 8045; experiment: In Vitro Antibacterial Activity, agar dilution MIC; settings: K. pneumoniae ATCC 8045; BHI agar dilution, 20-24 hours; unit assumed
Procedure: as §1, §2, §3

[11] = test system: Escherichia coli SS; experiment: In Vitro Antibacterial Activity, agar dilution MIC; settings: E. coli SS; BHI agar dilution, 20-24 hours; unit assumed
Procedure: as §1, §2, §3

[12] = test system: Staphylococcus aureus ATCC 6538P; experiment: In Vitro Antibacterial Activity, agar dilution MIC; settings: S. aureus ATCC 6538P; BHI agar dilution, 20-24 hours; unit assumed
Procedure: as §1, §2, §3

[13] = test system: Staphylococcus aureus NCTC 10649; experiment: In Vitro Antibacterial Activity, agar dilution MIC; settings: S. aureus NCTC 10649; BHI agar dilution, 20-24 hours; unit assumed
Procedure: as §1, §2, §3

[14] = test system: Micrococcus luteus ATCC 9341; experiment: In Vitro Antibacterial Activity, agar dilution MIC; settings: M. luteus ATCC 9341; BHI agar dilution, 20-24 hours; unit assumed
Procedure: as §1, §2, §3

[15] = test system: Escherichia coli DC-2; experiment: In Vitro Antibacterial Activity, agar dilution MIC; settings: E. coli DC-2; BHI agar dilution, 20-24 hours; unit assumed
Procedure: as §1, §2, §3

[16] = test system: Acinetobacter SP CMX 699; experiment: In Vitro Antibacterial Activity, agar dilution MIC; settings: BHI agar dilution, 20-24 hours, unit assumed
Procedure: as §1, §2, §3

[17] = test system: Streptococcus agalactaciae CMX 508; experiment: In Vitro Antibacterial Activity, agar dilution MIC; settings: S. agalactaciae CMX 508; BHI agar dilution, 20-24 hours; unit assumed
Procedure: as §1, §2, §3

[18] = test system: Streptococcus pyogenes 2548 INDUC; experiment: In Vitro Antibacterial Activity, agar dilution MIC; settings: S. pyogenes 2548 INDUC; BHI agar dilution, 20-24 hours; unit assumed
Procedure: as §1, §2, §3

[19] = test system: Pseudomonas aeruginosa 2862; experiment: In Vitro Antibacterial Activity, agar dilution MIC; settings: P. aeruginosa 2862; BHI agar dilution, 20-24 hours; unit assumed
Procedure: as §1, §2, §3

[20] = test system: Escherichia coli JUHL; experiment: In Vitro Antibacterial Activity, agar dilution MIC; settings: E. coli JUHL; BHI agar dilution, 20-24 hours; unit assumed
Procedure: as §1, §2, §3

[21] = test system: Streptococcus pyogenes 930 CONST; experiment: In Vitro Antibacterial Activity, agar dilution MIC; settings: S. pyogenes 930 CONST; BHI agar dilution, 20-24 hours; unit assumed
Procedure: as §1, §2, §3

[22] = test system: Pseudomonas aeruginosa A5007; experiment: In Vitro Antibacterial Activity, agar dilution MIC; settings: P. aeruginosa A5007; BHI agar dilution, 20-24 hours; unit assumed
Procedure: as §1, §2, §3

[23] = test system: Staphylococcus aureus CMX 553; experiment: In Vitro Antibacterial Activity, agar dilution MIC; settings: S. aureus CMX 553; BHI agar dilution, 20-24 hours; unit assumed
Procedure: as §1, §2, §3

[24] = test system: Staphylococcus aureus A-5278; experiment: In Vitro Antibacterial Activity, agar dilution MIC; settings: S. aureus A-5278; BHI agar dilution, 20-24 hours; unit assumed
Procedure: as §1, §2, §3

[25] = test system: Pseudomonas aeruginosa BMH10; experiment: In Vitro Antibacterial Activity, agar dilution MIC; settings: P. aeruginosa BMH10; BHI agar dilution, 20-24 hours; unit assumed
Procedure: as §1, §2, §3

[26] = test system: Staphylococcus epidermidis 3519; experiment: In Vitro Antibacterial Activity, agar dilution MIC; settings: S. epidermidis 3519; BHI agar dilution, 20-24 hours; unit assumed
Procedure: as §1, §2, §3

[27] = test system: Pseudomonas aeruginosa 5263; experiment: In Vitro Antibacterial Activity, agar dilution MIC; settings: P. aeruginosa 5263; BHI agar dilution, 20-24 hours; unit assumed
Procedure: as §1, §2, §3

[28] = test system: Staphylococcus aureus 45; experiment: In Vitro Antibacterial Activity, agar dilution MIC; settings: S. aureus 45; BHI agar dilution, 20-24 hours; unit assumed
Procedure: as §1, §2, §3

[29] = test system: Micrococcus luteus ATCC 4698; experiment: In Vitro Antibacterial Activity, agar dilution MIC; settings: M. luteus ATCC 4698; BHI agar dilution, 20-24 hours; unit assumed
Procedure: as §1, §2, §3

[30] = test system: Enterococcus faecium ATCC 8043; experiment: In Vitro Antibacterial Activity, agar dilution MIC; settings: E. faecium ATCC 8043; BHI agar dilution, 20-24 hours; unit assumed
Procedure: as §1, §2, §3

[31] = test system: Streptococcus pyogenes EES61; experiment: In Vitro Antibacterial Activity, agar dilution MIC; settings: S. pyogenes EES61; BHI agar dilution, 20-24 hours; unit assumed
Procedure: as §1, §2, §3

[32] = test system: Pseudomonas aeruginosa K799/WT; experiment: In Vitro Antibacterial Activity, agar dilution MIC; settings: P. aeruginosa K799/WT; BHI agar dilution, 20-24 hours; unit assumed
Procedure: as §1, §2, §3

[33] = test system: Providencia stuartii CMX 640; experiment: In Vitro Antibacterial Activity, agar dilution MIC; settings: P. stuartii CMX 640; BHI agar dilution, 20-24 hours; unit assumed
Procedure: as §1, §2, §3

## O=C(O)c1cn(C2CC2)c2cc(N3CCNCC3)c(F)cc2c1=O [Cipro, Ciprofloxacin, reference compound]
[1]
  MIC values: 0.02 µg/mL (≈ 0.0604 µM)
[2]
  MIC values: 1.56 µg/mL (≈ 4.71 µM)
[3]
  MIC values: > 100 µg/mL
[4]
  MIC values: 0.05 µg/mL (≈ 0.151 µM)
[5]
  MIC values: 0.01 µg/mL (≈ 0.0302 µM)
[6]
  MIC values: 0.39 µg/mL (≈ 1.18 µM)
[7]
  MIC values: 3.1 µg/mL (≈ 9.36 µM)
[8]
  MIC values: 0.39 µg/mL (≈ 1.18 µM)
[9]
  MIC values: 0.2 µg/mL (≈ 0.604 µM)
[10]
  MIC values: 0.02 µg/mL (≈ 0.0604 µM)
[11]
  MIC values: 0.005 µg/mL (≈ 0.0151 µM)
[12]
  MIC values: 0.2 µg/mL (≈ 0.604 µM)
[13]
  MIC values: 0.39 µg/mL (≈ 1.18 µM)
[14]
  MIC values: 1.56 µg/mL (≈ 4.71 µM)
[15]
  MIC values: 0.2 µg/mL (≈ 0.604 µM)
[16]
  MIC values: 0.39 µg/mL (≈ 1.18 µM)
[17]
  MIC values: 0.39 µg/mL (≈ 1.18 µM)
[18]
  MIC values: 0.39 µg/mL (≈ 1.18 µM)
[19]
  MIC values: 25 µg/mL (≈ 75.4 µM)
[20]
  MIC values: 0.02 µg/mL (≈ 0.0604 µM)
[21]
  MIC values: 0.78 µg/mL (≈ 2.35 µM)
[22]
  MIC values: 0.1 µg/mL (≈ 0.302 µM)
[23]
  MIC values: 0.78 µg/mL (≈ 2.35 µM)
[24]
  MIC values: 0.39 µg/mL (≈ 1.18 µM)
[25]
  MIC values: 0.05 µg/mL (≈ 0.151 µM)
[26]
  MIC values: 0.2 µg/mL (≈ 0.604 µM)
[27]
  MIC values: 12.5 µg/mL (≈ 37.7 µM)
[28]
  MIC values: 0.78 µg/mL (≈ 2.35 µM)
[29]
  MIC values: 0.78 µg/mL (≈ 2.35 µM)
[30]
  MIC values: 0.39 µg/mL (≈ 1.18 µM)
[31]
  MIC values: 0.39 µg/mL (≈ 1.18 µM)
[32]
  MIC values: 0.1 µg/mL (≈ 0.302 µM)
[33]
  MIC values: 0.78 µg/mL (≈ 2.35 µM)

## Cl.Cl.NCC1COC2(CCN(c3cc4c(cc3F)c(=O)c(C(=O)O)cn4-c3ccc(F)cc3F)C2)O1 (stereo not drawn) [Example 159, 1-(2,4-difluorophenyl)-7-(2-aminomethyl-1,4-dioxa-7-azaspiro[4.4]non-7-yl)-6-fluoro-1,4-dihydro-4-oxo-3-quinolinecarboxylic acid dihydrochloride]
[1]
  MIC values: 0.39 µg/mL
[2]
  MIC values: 0.78 µg/mL
[3]
  MIC values: 100 µg/mL
[4]
  MIC values: 0.78 µg/mL
[5]
  MIC values: 0.2 µg/mL
[6]
  MIC values: 0.39 µg/mL
[7]
  MIC values: 50 µg/mL
[8]
  MIC values: 0.39 µg/mL
[9]
  MIC values: 3.1 µg/mL
[10]
  MIC values: 0.39 µg/mL
[11]
  MIC values: 0.02 µg/mL
[12]
  MIC values: 0.2 µg/mL
[13]
  MIC values: 0.2 µg/mL
[14]
  MIC values: 12.5 µg/mL
[15]
  MIC values: 6.2 µg/mL
[16]
  MIC values: 0.78 µg/mL
[17]
  MIC values: 0.78 µg/mL
[18]
  MIC values: 0.39 µg/mL
[20]
  MIC values: 0.39 µg/mL
[21]
  MIC values: 0.39 µg/mL
[22]
  MIC values: 3.1 µg/mL
[23]
  MIC values: 0.78 µg/mL
[25]
  MIC values: 3.1 µg/mL
[26]
  MIC values: 0.78 µg/mL
[28]
  MIC values: 0.78 µg/mL
[29]
  MIC values: 6.2 µg/mL
[30]
  MIC values: 0.78 µg/mL
[31]
  MIC values: 0.39 µg/mL
[32]
  MIC values: 3.1 µg/mL
[33]
  MIC values: 25 µg/mL
